Measured values: patent US8822517B2, “Arylosulfonamides for the treatment of CNS diseases” (Adamed SP. Z O.O., priority 2010, dated 2014)

Experiments:
[1] = biological target: histaminergic H1 receptor (Homo sapiens, UniProt P35367); assay: Binding assay H1 (h), [3H]pyrilamine, HEK-293 cells; design: expressed in transfected cells; host or cells: HEK-293 cells; conditions: read-out: H1 [%]
Method in brief: (§1)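 Test conc. 1×10^−6 M. Read-out by scintillation counting. Specific = total − nonspecific (excess cold ligand).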

[2] = biological target: serotoninergic 5-HT6 receptor (Homo sapiens, UniProt P50406); assay: Binding assay 5-HT6 (h), [3H]LSD, CHO cells; design: expressed in transfected cells; host or cells: CHO cells; conditions: read-out: 5-HT6
Method in brief: as §1

[3] = system: sigma σ receptor; assay: Binding assay σ (non-selective), [3H]DTG, rat cerebral cortex; conditions: percent inhibition of control specific binding; compounds tested at 1×10^−6 M
Method in brief: as §1

[4] = biological target: serotoninergic 5-HT2A receptor (Homo sapiens, UniProt P28223); assay: Binding assay 5-HT2A (h), [3H]ketanserin, HEK-293 cells; design: expressed in transfected cells; host or cells: HEK-293 cells; conditions: read-out: 5-HT2A
Method in brief: as §1

[5] = biological target: T1, serotonine transporter (SERT) receptor (Homo sapiens, UniProt P31645); assay: Binding assay SERT (h), [3H]imipramine, CHO cells; conditions: read-out: SERT [%]
T1 construct: expressed in transfected cells; host or cells: CHO cells
Method in brief: as §1

[6] = biological target: T2, adrenergic α2C receptor (Homo sapiens, UniProt P18825); assay: Binding assay α2C (h), [3H]RX 821002, CHO cells; design: expressed in transfected cells; host or cells: CHO cells; conditions: read-out: α2C [%]
T2 sequence (P18825 1-462): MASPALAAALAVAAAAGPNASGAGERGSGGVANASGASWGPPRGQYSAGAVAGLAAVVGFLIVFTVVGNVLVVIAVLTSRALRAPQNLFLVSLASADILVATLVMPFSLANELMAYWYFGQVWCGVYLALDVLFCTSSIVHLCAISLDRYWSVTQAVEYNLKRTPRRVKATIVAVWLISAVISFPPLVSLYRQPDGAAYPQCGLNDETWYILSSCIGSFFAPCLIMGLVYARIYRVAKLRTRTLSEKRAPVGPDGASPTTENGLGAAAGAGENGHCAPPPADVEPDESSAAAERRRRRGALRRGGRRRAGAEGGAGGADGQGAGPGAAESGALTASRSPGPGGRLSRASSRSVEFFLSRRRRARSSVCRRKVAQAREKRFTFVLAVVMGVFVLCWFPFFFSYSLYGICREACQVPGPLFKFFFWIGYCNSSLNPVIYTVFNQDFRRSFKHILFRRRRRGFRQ
Method in brief: as §1

[7] = biological target: serotoninergic 5-HT7 receptor (Homo sapiens, UniProt P34969); assay: Binding assay 5-HT7 (h), [3H]LSD, CHO cells; design: expressed in transfected cells; host or cells: CHO cells; conditions: read-out: 5-HT7
Method in brief: as §1

[8] = system: adrenergic α1 receptor; assay: Binding assay α1 (non-selective), [3H]prazosin, rat cerebral cortex; conditions: percent inhibition of control specific binding; compounds tested at 1×10^−6 M
Method in brief: as §1

[9] = biological target: T3, muscarinic M3 receptor (Homo sapiens, UniProt P20309); assay: Binding assay M3 (h), [3H]4-DAMP, CHO cells; conditions: read-out: M3 [%]
T3 construct: expressed in transfected cells; host or cells: CHO cells
Method in brief: as §1

[10] = biological target: T4, serotoninergic receptor 5-HT2C (Homo sapiens, UniProt P28335); assay: Binding assay 5-HT2C (h), [3H]mesulergine, HEK-293 cells; conditions: read-out: 5-HT2C [%]
T4 construct: expressed in transfected cells; host or cells: HEK-293 cells
T4 sequence (P28335 33-458): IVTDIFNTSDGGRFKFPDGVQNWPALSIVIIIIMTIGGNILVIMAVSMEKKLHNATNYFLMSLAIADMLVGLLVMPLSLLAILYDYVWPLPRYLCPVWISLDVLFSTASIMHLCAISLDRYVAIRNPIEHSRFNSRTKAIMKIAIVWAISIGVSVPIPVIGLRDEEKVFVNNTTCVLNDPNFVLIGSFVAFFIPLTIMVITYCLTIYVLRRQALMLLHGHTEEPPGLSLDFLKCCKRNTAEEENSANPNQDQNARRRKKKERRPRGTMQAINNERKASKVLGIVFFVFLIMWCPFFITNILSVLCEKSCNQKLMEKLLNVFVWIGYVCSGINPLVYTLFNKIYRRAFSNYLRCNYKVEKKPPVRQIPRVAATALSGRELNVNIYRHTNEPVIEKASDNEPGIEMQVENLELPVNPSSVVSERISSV
Method in brief: as §1

[11] = biological target: dopaminergic D2 receptor (Homo sapiens, UniProt P14416); assay: Binding assay D2S (h), [3H]methyl-spiperone, HEK-293 cells; design: expressed in transfected cells; host or cells: HEK-293 cells; conditions: read-out: D2 [%]
Method in brief: as §1

[12] = biological target: T5, serotoninergic 5-HT1A receptor (Homo sapiens, UniProt P08908); assay: Binding assay 5-HT1A (h), [3H]8-OH-DPAT, HEK-293 cells; design: expressed in transfected cells; host or cells: HEK-293 cells; conditions: read-out: 5-HT1A
T5 sequence (P08908 1-422): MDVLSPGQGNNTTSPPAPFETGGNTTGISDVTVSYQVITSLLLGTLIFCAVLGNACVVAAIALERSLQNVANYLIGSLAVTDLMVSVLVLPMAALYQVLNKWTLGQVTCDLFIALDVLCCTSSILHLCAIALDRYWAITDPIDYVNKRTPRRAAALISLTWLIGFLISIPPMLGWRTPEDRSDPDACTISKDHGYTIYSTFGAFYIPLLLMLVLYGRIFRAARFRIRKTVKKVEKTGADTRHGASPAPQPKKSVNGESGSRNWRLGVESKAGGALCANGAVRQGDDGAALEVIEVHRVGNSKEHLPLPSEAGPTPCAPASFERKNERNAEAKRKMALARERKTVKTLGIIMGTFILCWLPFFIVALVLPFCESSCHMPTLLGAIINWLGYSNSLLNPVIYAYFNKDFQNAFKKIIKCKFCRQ
Method in brief: as §1

[13] = biological target: dopaminergic D3 receptor (Homo sapiens, UniProt P35462); assay: Binding assay D3 (h), [3H]methyl-spiperone, CHO cells; design: expressed in transfected cells; host or cells: CHO cells; conditions: read-out: D3 [%]
Method in brief: as §1

T3 sequence (P20309 whole entry): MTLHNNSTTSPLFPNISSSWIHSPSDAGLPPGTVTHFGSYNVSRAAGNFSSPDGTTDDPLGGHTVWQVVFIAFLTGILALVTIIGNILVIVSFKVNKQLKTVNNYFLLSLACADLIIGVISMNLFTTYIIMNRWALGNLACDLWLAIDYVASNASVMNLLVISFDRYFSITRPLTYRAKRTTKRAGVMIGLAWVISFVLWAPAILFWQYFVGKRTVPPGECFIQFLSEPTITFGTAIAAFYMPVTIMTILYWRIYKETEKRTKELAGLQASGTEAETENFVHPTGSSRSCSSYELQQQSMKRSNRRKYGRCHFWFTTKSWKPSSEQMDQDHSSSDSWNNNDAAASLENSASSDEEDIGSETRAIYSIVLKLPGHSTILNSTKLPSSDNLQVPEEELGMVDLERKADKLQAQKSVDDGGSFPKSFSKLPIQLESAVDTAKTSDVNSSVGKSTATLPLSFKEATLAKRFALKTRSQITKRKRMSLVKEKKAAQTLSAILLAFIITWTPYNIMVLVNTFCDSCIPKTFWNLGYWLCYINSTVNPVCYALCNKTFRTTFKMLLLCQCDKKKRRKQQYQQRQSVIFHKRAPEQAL
Chain of serotoninergic 5-HT2A receptor (P28223 whole entry): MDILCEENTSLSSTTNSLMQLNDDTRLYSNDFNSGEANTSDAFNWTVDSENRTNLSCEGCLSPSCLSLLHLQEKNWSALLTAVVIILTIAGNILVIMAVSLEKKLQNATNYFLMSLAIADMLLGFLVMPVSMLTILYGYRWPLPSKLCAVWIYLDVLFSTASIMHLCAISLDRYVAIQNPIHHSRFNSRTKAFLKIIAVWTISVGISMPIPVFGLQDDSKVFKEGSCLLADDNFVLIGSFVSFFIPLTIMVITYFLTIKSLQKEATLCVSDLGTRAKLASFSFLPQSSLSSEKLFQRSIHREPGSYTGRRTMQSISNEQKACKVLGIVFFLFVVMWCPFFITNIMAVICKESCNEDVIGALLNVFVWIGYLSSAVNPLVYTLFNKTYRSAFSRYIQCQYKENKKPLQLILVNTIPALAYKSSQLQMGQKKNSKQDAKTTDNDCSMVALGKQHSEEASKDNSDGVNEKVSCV
T1 sequence (P31645 whole entry): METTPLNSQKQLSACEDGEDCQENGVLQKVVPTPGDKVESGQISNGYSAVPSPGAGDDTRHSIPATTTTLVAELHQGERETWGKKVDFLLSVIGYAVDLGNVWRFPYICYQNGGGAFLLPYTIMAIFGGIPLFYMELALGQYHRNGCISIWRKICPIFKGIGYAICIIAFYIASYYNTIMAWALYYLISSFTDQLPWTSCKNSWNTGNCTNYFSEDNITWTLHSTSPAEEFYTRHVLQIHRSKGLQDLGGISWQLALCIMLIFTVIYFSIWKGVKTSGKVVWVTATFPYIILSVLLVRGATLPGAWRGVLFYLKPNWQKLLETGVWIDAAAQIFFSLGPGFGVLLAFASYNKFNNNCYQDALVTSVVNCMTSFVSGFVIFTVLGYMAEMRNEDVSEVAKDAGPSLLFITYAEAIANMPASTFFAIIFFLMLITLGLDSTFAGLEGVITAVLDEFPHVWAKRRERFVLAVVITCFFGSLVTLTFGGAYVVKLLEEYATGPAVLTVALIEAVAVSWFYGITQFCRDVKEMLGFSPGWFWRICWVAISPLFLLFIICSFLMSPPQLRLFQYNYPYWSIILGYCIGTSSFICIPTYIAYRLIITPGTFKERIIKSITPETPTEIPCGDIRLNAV
Chain of histaminergic H1 receptor (P35367 whole entry): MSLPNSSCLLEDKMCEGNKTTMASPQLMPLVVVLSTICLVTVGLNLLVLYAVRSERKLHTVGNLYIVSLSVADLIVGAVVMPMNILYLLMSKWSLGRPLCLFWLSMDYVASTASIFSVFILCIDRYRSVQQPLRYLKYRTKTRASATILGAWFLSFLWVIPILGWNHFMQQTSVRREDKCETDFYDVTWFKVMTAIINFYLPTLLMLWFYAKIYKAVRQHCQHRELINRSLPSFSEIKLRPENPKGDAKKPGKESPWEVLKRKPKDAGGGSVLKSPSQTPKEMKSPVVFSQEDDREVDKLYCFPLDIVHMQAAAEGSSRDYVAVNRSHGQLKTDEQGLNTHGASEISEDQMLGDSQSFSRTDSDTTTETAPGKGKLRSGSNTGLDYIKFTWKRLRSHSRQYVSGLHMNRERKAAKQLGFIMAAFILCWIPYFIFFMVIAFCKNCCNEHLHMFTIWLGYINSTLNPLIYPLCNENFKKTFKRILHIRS
Chain of dopaminergic D3 receptor (P35462 whole entry): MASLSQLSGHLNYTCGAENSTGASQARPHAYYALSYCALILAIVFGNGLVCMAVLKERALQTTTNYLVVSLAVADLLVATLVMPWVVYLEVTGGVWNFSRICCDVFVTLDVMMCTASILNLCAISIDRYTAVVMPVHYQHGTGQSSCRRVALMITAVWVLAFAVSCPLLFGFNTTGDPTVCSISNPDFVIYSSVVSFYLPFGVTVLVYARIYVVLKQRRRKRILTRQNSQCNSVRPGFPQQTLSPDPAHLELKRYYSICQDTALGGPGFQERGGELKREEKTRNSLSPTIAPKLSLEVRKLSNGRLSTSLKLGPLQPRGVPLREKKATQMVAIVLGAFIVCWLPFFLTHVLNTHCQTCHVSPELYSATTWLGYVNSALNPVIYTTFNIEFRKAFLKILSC
Chain of serotoninergic 5-HT7 receptor (P34969 whole entry): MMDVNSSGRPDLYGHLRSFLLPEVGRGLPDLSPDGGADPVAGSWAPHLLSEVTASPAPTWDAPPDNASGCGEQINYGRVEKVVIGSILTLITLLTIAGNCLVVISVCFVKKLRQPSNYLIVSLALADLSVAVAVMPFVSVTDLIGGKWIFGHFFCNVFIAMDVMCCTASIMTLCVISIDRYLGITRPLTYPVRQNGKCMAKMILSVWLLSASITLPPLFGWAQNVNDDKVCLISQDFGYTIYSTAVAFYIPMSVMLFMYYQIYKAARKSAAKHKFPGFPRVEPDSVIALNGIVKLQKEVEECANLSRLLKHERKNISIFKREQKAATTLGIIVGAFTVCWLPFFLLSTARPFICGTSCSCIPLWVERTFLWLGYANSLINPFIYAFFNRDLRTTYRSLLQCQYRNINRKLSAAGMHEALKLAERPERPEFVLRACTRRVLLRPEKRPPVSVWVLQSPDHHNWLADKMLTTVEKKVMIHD
Chain of dopaminergic D2 receptor (P14416 1-414 isoform P14416-2): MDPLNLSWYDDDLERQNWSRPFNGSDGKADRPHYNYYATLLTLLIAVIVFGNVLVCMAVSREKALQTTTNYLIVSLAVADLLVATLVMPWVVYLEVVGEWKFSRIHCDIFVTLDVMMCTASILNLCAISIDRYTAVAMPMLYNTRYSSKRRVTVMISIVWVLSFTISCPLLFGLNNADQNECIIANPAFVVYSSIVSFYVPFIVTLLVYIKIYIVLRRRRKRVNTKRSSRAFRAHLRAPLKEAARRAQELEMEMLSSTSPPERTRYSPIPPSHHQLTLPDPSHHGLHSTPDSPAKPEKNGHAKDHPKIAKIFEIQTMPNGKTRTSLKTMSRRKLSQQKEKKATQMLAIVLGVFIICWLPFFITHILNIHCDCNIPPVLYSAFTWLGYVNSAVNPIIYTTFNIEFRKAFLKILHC
Chain of serotoninergic 5-HT6 receptor (P50406 whole entry): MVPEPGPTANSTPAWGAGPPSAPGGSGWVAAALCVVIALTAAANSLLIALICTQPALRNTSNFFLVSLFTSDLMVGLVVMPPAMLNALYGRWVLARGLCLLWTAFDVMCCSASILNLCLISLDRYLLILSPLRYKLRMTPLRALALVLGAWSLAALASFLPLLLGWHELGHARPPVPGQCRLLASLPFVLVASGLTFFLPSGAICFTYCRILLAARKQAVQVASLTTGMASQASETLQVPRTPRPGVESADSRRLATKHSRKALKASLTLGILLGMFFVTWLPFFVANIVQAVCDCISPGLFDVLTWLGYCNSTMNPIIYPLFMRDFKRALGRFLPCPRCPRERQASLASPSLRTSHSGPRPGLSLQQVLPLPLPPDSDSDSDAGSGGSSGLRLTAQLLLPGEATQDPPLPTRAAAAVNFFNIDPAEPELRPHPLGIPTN

| SMILES | inhibition at 1 µM [1] [%] | inhibition at 1 µM [2] [%] | σ [%] [3] [%] | inhibition at 1 µM [4] [%] | inhibition at 1 µM [5] [%] | inhibition at 1 µM [6] [%] | inhibition at 1 µM [7] [%] | α1 [%] [8] [%] | inhibition at 1 µM [9] [%] | inhibition at 1 µM [10] [%] | inhibition at 1 µM [11] [%] | inhibition at 1 µM [12] [%] | inhibition at 1 µM [13] [%] |
| --- | --- | --- | --- | --- | --- | --- | --- | --- | --- | --- | --- | --- | --- |
| O=S(=O)(NCCCN1CCN(c2nsc3ccccc23)CC1)c1cc2ccccc2s1 [Compound 262, N-[3-[4-(1,2-Benzothiazol-3-yl)piperazin-1-yl]propyl]benzothiophene-2-sulphonamide] | 95 | 93 | 51 | 102 | 87 | 94 | 99 | 95 | 19 | 84 | 98 | 99 | 98 |
| O=S(=O)(NCCCN1CCN(c2nsc3ccccc23)CC1)c1csc2ccccc12 [Compound 263, N-[3-[4-(1,2-Benzothiazol-3-yl)piperazin-1-yl]propyl]benzothiophene-3-sulphonamide] | 93 | 96 | 49 | 102 | 87 | 93 | 98 | 90 | 7 | 87 | 98 | 98 | 98 |
| O=S(=O)(NCCCN1CCN(c2nsc3ccccc23)CC1)c1cccc2scnc12 [Compound 267, N-[3-[4-(1,2-Benzothiazol-3-yl)piperazin-1-yl]propyl]-1,3-benzothiazole-4-sulphonamide] | 92 | 95 | 50 | 101 | 91 | 99 | 100 | 97 | 13 | 78 | 100 | 98 | 99 |
| O=S(=O)(NCCCN1CCN(c2nsc3ccccc23)CC1)c1ccc2cn[nH]c2c1 [Compound 268, N-[3-[4-(1,2-Benzothiazol-3-yl)piperazin-1-yl]propyl]-1H-indazole-6-sulphonamide] | 95 | 93 | 30 | 102 | 86 | 99 | 99 | 90 | 14 | 78 | 98 | 98 | 98 |
| O=S(=O)(NCCCN1CCN(c2nsc3ccccc23)CC1)c1ccc2c(c1)OCO2 [Compound 269, N-[3-[4-(1,2-Benzothiazol-3-yl)piperazin-1-yl]propyl]-1,3-benzodioxole-5-sulphonamide] | 92 | 98 | 49 | 101 | 96 | 101 | 101 | 97 | 20 | 92 | 99 | 99 | 100 |
| O=S(=O)(NCCCCN1CCC(c2noc3cc(F)ccc23)CC1)c1ccc(F)c(F)c1 [Compound 295, 3,4-Difluoro-N-[4-[4-(6-fluoro-1,2-benzoxazol-3-yl)piperidin-1-yl]butyl]benzenesulphonamide] | 95 | 93 | 63 | 99 | 16 | 97 | 99 | 96 | 19 | 51 | 95 | 68 | 98 |
